Legend:
[1] = test system: Gram-positive bacteria including acetic acid bacteria; details: background statement; cited from earlier work
[2] = test system: Escherichia coli NBRC 3301 strain; assay: Antibacterial activity against Escherichia coli (1): contact for days, colony count; format: cell-based; details: Table 2, nisin 10 μg/mL
Experimental: The Escherichia coli NBRC 3301 strain, which is a Gram-negative bacterium, was cultured to the logarithmic phase in Tryptic Soy Broth (TSB). The culture medium was diluted with sterilized purified water to adjust the number of bacteria (10^3 to 10^4 CFU/mL). Test solutions were prepared by dilution with sterilized purified water so as to contain nisin (10 μg/mL), the 5-fold concentrate of Prunus mume extract (3 mg/mL, 15 mg/mL as the extract before concentration), or nisin (10 μg/mL)+5-fold concentrate of Prunus mume extract (3 mg/mL, 15 mg/mL as the extract before concentration). The diluted culture medium (10 μL) was added to each test solution (1 mL). After contact of the bacterium with the test solution at room temperature for a predetermined number of days (0 to 7 days), the mixture (100 μL) was plated on TBS agar medium. The bacterium was cultured for 48 hours, and then the number of the colonies formed on the plate was counted. The results are shown in Tables 2 and 3 mentioned below and FIGS. 3 and 4. In Tables 2 and 3, “D+n” means the number of days (n days) for the contact of the diluted culture medium and the test solution (the same shall apply to the following descriptions).

[3] = test system: Porphyromonas gingivalis W83 strain; assay: Antibacterial activity against Porphyromonas gingivalis (2): growth inhibition effect by turbidity at 600 nm; format: cell-based; details: FIG. 2, 48 hours culture
Experimental: The Porphyromonas gingivalis W83 strain, a causative bacterium of periodontal disease, was cultured to the logarithmic phase in the brain heart infusion medium containing hemin (5 mg/L) and metidione (1 mg/L). The culture medium was diluted with a citrate buffer containing 0.8% NaCl to adjust the number of bacteria (10^6 CFU/mL). Test solutions were prepared by dilution with sterilized purified water so as to contain the 5-fold concentrate of Prunus mume extract (10 mg/mL, 50 mg/mL as the extract before concentration), nisin (20 μg/mL), or the 5-fold concentrate of Prunus mume extract (10 mg/mL, 50 mg/mL as the extract before concentration)+nisin ([…]), and serially diluted 2-fold on a 96-well plate. To each well (containing 50 μL of test solution), the brain heart infusion medium (140 μL) containing hemin (5 mg/L) and metidione (1 mg/L) and the cell suspension (10 μL) were added. After culture for 48 hours, turbidity of the culture was measured at 600 nm. For evaluation, growth inhibition effect (%) was calculated according to the equation: Growth inhibition effect (%)=(1−(Turbidity observed with test solution)/(Turbidity observed with sterilized water))×100.

[4] = test system: Porphyromonas gingivalis ATCC 33277 strain; assay: Antibacterial activity against Porphyromonas gingivalis (1): 1 minute contact, colony count; format: cell-based
Experimental: The Porphyromonas gingivalis ATCC 33277 strain, a causative bacterium of periodontal disease, was cultured to the logarithmic phase in Enriched Tryptic Soy Broth (e-TSB). The culture medium was diluted with a citrate buffer (pH 4.5) containing 0.8% NaCl to adjust the number of bacteria (10^6 CFU/mL). Test solutions were prepared by dilution with sterilized purified water so as to contain the 5-fold concentrate of Prunus mume extract (3 mg/mL, 15 mg/mL as the extract before concentration), nisin (150 μg/mL), or nisin (150 μg/mL)+5-fold concentrate of Prunus mume extract (3 mg/mL, 15 mg/mL as the extract before concentration). The diluted culture medium (100 μL) was added to each test solution (5 mL). After contact of the bacterium with the test solution for 1 minute at room temperature, the mixture (100 μL) was added to and mixed with the e-TSB medium (5 mL), and the mixture (100 μL) was immediately plated on a blood agar medium under an anaerobic condition. The bacterium was cultured for 5 days under an anaerobic condition, and then the number of the colonies formed on the plate was counted. The results were as shown in Table 1 mentioned below and FIG. 1. In Table 1, “CFU” means colony-forming unit (the same shall apply to the following descriptions).

## nisin A
[1]
  concentration showing growth-suppressing effect: about 1 ppb
[2]; 0 days contact
  Number of bacteria, D + 0: 4,540 CFU/mL
[2]; 1 day contact
  Number of bacteria, D + 1: 1,740 CFU/mL
[2]; 3 days contact
  Number of bacteria, D + 3: 1,430 CFU/mL
[2]; 7 days contact
  Number of bacteria, D + 7: 290 CFU/mL
[3]; 2-fold serial dilution, overall
  growth inhibition effect (in words): extremely low
[3]; at the 1/32 concentration (32-fold dilution)
  growth inhibition effect (in words): did not show any growth inhibition effect at all
[4]; Example 1, Table 1 and FIG. 1
  antibacterial activity against Porphyromonas gingivalis (in words): did not show any antibacterial activity at all
[4]; after contact for 1 minute at room temperature, nisin 150 μg/mL, Prunus mume extract 3 mg/mL (5-fold concentrate)
  Number of bacteria, After contact: 1.0 × 10^6 CFU/mL
[4]; before contact, nisin 150 μg/mL, Prunus mume extract 3 mg/mL (5-fold concentrate)
  Number of bacteria, Before contact: 1.0 × 10^6 CFU/mL
